The subject of assay [1] is mTORC2 activity: phosphorylated AKT Ser473 (pAKT S473) in PC3 cells. In words: mTOR target engagement assay, immunofluorescent cell-based, mTORC2 readout. The following applies: Homo sapiens, PC-3, 1.5 h, rated class, 90 min treatment. In a few lines:
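Read-out is immunofluorescence intensity, normalized to DMSO-only wells and fitted to a sigmoidal Hill equation for IC50. The mTORC1 arm probes phospho-4E-BP1 Thr37/46 and the mTORC2 arm phospho-AKT Ser473.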

Assay [2] has as its system mTORC1 activity: phosphorylated 4E-BP1 Thr37/46 (p4E-BP1 Thr37/46) in PC3 cells. In words: mTOR target engagement assay, immunofluorescent cell-based, mTORC1 readout. The following applies: Homo sapiens, PC-3, 1.5 h, rated class, 90 min treatment, read-out: P4EBP1 IC50. The procedure: The target engagement of mTOR kinase inhibitors was evaluated using an immunofluorescent cell-based assay. In this assay, inhibition of mTORC1 activity was measured by the reduction in the level of phosphorylated 4E-BP1Thr37/46 (p4E-BP1 Thr37/46), and inhibition of mTORC2 activity was measured by the reduction of phosphorylated AKTSer473 (pAKT S473).
PC3 cells (prostate tumor cell-line that contains a mutation in the tumor suppressor PTEN, that promotes the phosphorylation and activation of AKT and 4E-BP1) were used in the immunofluorescence assay. PC3 cells were seeded on 384 well plates (black clear bottom, Matrix #4332) overnight. PC3 cells were then treated with 40 μl of the serially diluted test compounds (in 5% fetal bovine serum, F12 medium containing 0.25% DMSO) for ninety minutes at 37° C. The test compound solution was removed, and the plates were washed gently two times with 25 μl phosphate buffered saline (PBS). The cells were fixed by adding 25 μl of Prefer reagent (from Anatech LTD, Cat#414, a glyoxal fixative for fixing proteins within a cell) for sixty minutes followed by three washes with PBS. 5% Goat serum in PBS/0.3% Triton was used to block non-specific binding (60 minutes).
The primary antibodies targeting pAKT S473 and p4E-BP1 Thr37/46 were diluted into PBS/0.3% Triton and incubated with the cells overnight at 4° C. The antibodies targeting pAKTS473 (Cat#4085, Cell signaling) and p4E-BP1 Thr37/46 (Cat#2855, Cell signaling) were used at a 1:100 dilution. Plates were washed three times with PBS/0.1% Tween 20 before adding the secondary antibody at a 1:200 dilution. (goat anti-rabbit containing a fluorescent label, Alexa Fluor 488, Cat#A11008, Invitrogen) in PBS/0.3% Triton for 60 minutes.
Finally, the plates were washed three times with PBS/0.1% Tween 20 and the fluorescent intensity was read using an Analyst HT from Molecular Devices. The fluorescent intensity values from the serially diluted compound treatment group were analyzed using the Xlfit 4 program ([…]) (Formula 205: Y=Bottom+(Top-Bottom)/(1+(IC50/X)^Hillslope) to generate the IC50 value. Where Top is the maximum signal without Compound (+DMSO only) and Bottom represents maximum inhibition. Y is the fluorescence at some compound concentration. The control used to determine the fluorescent intensities for 100% pAKT S473 or 100% phosphorylated p4E-BP1 Thr37/46 were measured from untreated wells that contained only DMSO, instead of test compound.

The target in assay [3] is human mTOR enzyme (Homo sapiens, UniProt P42345). The assay can be described thus: HTRF mTOR enzyme (kinase) assay. Type of assay: biochemical. The following applies: rated class; 5 μM ATP, 0.2 μM GST-S6K; read-out: hMTOR IC50.
human mTOR enzyme, sequence (P42345 1360-2549 limits assumed): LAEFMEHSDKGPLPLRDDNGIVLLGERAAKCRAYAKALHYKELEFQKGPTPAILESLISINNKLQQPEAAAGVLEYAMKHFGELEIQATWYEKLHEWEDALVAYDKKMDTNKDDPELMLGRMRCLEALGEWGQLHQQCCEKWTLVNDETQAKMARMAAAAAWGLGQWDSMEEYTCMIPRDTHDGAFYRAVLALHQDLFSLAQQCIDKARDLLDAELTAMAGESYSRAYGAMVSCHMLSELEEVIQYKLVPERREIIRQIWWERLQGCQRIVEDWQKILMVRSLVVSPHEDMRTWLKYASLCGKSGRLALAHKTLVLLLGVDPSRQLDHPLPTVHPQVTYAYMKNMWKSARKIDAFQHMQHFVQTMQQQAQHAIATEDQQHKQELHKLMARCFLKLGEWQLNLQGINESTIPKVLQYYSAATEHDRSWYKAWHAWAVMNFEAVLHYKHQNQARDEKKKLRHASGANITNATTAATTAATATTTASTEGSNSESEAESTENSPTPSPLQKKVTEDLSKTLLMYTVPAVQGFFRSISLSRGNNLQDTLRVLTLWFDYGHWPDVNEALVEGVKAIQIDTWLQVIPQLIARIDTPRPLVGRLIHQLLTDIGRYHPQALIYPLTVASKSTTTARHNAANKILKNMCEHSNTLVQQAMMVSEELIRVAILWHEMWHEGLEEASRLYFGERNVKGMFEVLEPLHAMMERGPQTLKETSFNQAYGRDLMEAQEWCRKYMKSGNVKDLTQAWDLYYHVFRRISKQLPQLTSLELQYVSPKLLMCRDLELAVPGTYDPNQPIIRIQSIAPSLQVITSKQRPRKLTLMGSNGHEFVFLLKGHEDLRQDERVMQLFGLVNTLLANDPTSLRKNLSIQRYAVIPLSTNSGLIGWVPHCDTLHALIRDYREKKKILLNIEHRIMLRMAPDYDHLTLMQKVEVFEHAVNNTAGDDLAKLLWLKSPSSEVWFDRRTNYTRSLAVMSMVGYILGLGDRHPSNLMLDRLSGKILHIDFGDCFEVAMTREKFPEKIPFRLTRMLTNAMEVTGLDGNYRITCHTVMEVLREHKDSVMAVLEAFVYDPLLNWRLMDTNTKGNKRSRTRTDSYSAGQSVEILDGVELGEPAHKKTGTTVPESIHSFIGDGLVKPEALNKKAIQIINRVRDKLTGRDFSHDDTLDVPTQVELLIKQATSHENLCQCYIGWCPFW

pIC50: −log10 of the molar value.

With `COCCO[C@]1(C(=O)O)CC[C@@H](c2nc3c(-c4cnn(-c5ccccc5)c4)cnn3c(N)c2C#N)CC1` [Compound 69, (1R,4R)-4-(7-amino-6-cyano-3-(1-phenyl-1H-pyrazol-4-yl)pyrazolo[1,5-a]pyrimidin-5-yl)-1-(2-methoxyethoxy)cyclohexanecarboxylic acid], the pIC50 in assay [1], in assay [2] and in assay [3] was 7.00 to 9.00 throughout.
For `COCCO[C@]1(C(=O)NN2CCOCC2)CC[C@@H](c2nc3c(-c4cnn(-c5ccccc5)c4)cnn3c(N)c2S(C)(=O)=O)CC1` [Compound 96, (1R,4R)-4-(7-amino-6-(methylsulfonyl)-3-(1-phenyl-1H-pyrazol-4-yl)pyrazolo[1,5-a]pyrimidin-5-yl)-1-(2-methoxyethoxy)-N-morpholinocyclohexane-carboxamide], the pIC50 in assay [1] was 6.00 to 7.00; in assay [2], 5.70 to 6.00; in assay [3] it was 7.00 to 9.00.
Regarding `COCCO[C@]1(C(=O)NO)CC[C@@H](c2nc3c(-c4cnn(-c5ccccc5)c4)cnn3c(N)c2S(C)(=O)=O)CC1` [Compound 88, (1R,4R)-4-(7-amino-6-(methylsulfonyl)-3-(1-phenyl-1H-pyrazol-4-yl)pyrazolo[1,5-a]pyrimidin-5-yl)-N-hydroxy-1-(2-methoxyethoxy)cyclohexanecarboxamide], the pIC50 in assay [1], in assay [2] and in assay [3] was 7.00 to 9.00 each time.
For the molecule `CS(=O)(=O)c1c(C2CCC(O)(CO)CC2)nc2c(-c3cnn(-c4ccccc4)c3)cnn2c1N` (stereo not drawn) [Compound 166, 4-(7-amino-6-(methylsulfonyl)-3-(1-phenyl-1H-pyrazol-4-yl)pyrazolo[1,5-a]pyrimidin-5-yl)-1-(hydroxymethyl)cyclohexanol], the pIC50 in assay [1] is 7.00 to 9.00; in assay [2] it was 6.00 to 7.00; in assay [3], 7.00 to 9.00.
Consider `CO[C@]1(C(=O)O)CC[C@@H](c2nc3c(-c4ccc(-c5ccccc5)nc4)cnn3c(N)c2C(C)=O)CC1` [Compound 35, (1R,4R)-4-(6-acetyl-7-amino-3-(6-phenylpyridin-3-yl)pyrazolo[1,5-a]pyrimidin-5-yl)-1-methoxycyclohexane-carboxylic acid], for which the values for the pIC50 in assay [1], in assay [2] and in assay [3] were 7.00 to 9.00, 6.00 to 7.00 and 7.00 to 9.00, respectively.
As for `COCCO[C@]1(C(=O)n2ccc(=O)[nH]2)CC[C@@H](c2nc3c(-c4cnn(-c5ccccc5)c4)cnn3c(N)c2S(C)(=O)=O)CC1` [Compound 94, 1-((1R,4R)-4-(7-amino-6-(methylsulfonyl)-3-(1-phenyl-1H-pyrazol-4-yl)pyrazolo[1,5-a]pyrimidin-5-yl)-1-(2-methoxyethoxy)-cyclohexanecarbonyl)-1H-pyrazol-3(2H)-one], the pIC50 in assay [1] is 7.00 to 9.00; in assay [2] it was 6.00 to 7.00; in assay [3], 7.00 to 9.00.
As to `COCCO[C@]1(C(=O)N2CCC(=O)N2)CC[C@@H](c2nc3c(-c4cnn(-c5ccccc5)c4)cnn3c(N)c2S(C)(=O)=O)CC1` [Compound 95, 1-((1R,4R)-4-(7-amino-6-(methylsulfonyl)-3-(1-phenyl-1H-pyrazol-4-yl)pyrazolo[1,5-a]pyrimidin-5-yl)-1-(2-methoxyethoxy)cyclohexanecarbonyl)-pyrazolidin-3-one], the pIC50 is 6.00 to 7.00 in assay [1], 6.00 to 7.00 in assay [2] and 7.00 to 9.00 in assay [3].
Turning to `COCCO[C@]1(C(=O)O)CC[C@@H](c2nc3c(-c4cnn(-c5ccc(F)cc5)c4)cnn3c(N)c2S(C)(=O)=O)CC1` [Compound 43, (1R,4R)-4-(7-amino-3-(1-(4-fluorophenyl)-1H-pyrazol-4-yl)-6-(methylsulfonyl)-pyrazolo[1,5-a]-pyrimidin-5-yl)-1-(2-methoxyethoxy)-cyclohexanecarboxylic acid], the pIC50 in assay [1] was 6.00 to 7.00; in assay [2] it was 6.00 to 7.00; in assay [3], 7.00 to 9.00.
On to `COCCNC(=O)[C@]1(OCCOC)CC[C@H](c2nc3c(-c4cnn(-c5ccccc5)c4)cnn3c(N)c2S(C)(=O)=O)CC1` [Compound 93, (1R,4R)-4-(7-amino-6-(methylsulfonyl)-3-(1-phenyl-1H-pyrazol-4-yl)pyrazolo[1,5-a]pyrimidin-5-yl)-1-(2-methoxyethoxy)-N-(2-methoxyethyl)-cyclohexane-carboxamide], for which the values for the pIC50 in assay [1], in assay [2] and in assay [3] were 6.00 to 7.00, 5.70 to 6.00 and 7.00 to 9.00, respectively.
For `COCCO[C@]1(C(=O)c2nnc[nH]2)CC[C@@H](c2nc3c(-c4cnn(-c5ccccc5)c4)cnn3c(N)c2S(C)(=O)=O)CC1` [Compound 122, ((1R,4R)-4-(7-amino-6-(methylsulfonyl)-3-(1-phenyl-1H-pyrazol-4-yl)pyrazolo[1,5-a]pyrimidin-5-yl)-1-(2-methoxyethoxy)cyclohexyl)(4H-1,2,4-triazol-3-yl)methanone] the same measures were 7.00 to 9.00, 7.00 to 9.00 and 7.00 to 9.00.
In the case of `CO[C@]1(C(=O)O)CC[C@@H](c2nc3c(-c4cnn(-c5ccccc5)c4)cnn3c(N)c2Br)CC1` [Compound 30, (1R,4R)-4-(7-amino-6-bromo-3-(1-phenyl-1H-pyrazol-4-yl)pyrazolo[1,5-a]pyrimidin-5-yl)-1-methoxycyclohexane-carboxylic acid], the figures for the pIC50 in assay [1], in assay [2] and in assay [3] were 6.00 to 7.00, 6.00 to 7.00 and 7.00 to 9.00, respectively.
In the case of `COCCO[C@]1(c2nnn[nH]2)CC[C@@H](c2nc3c(-c4ccc(-c5ccccc5)nc4)cnn3c(N)c2S(C)(=O)=O)CC1` [Compound 119], the pIC50 in assay [1] is 5.70 to 6.00; in assay [2] it was 5.30 to 5.70; in assay [3], 7.00 to 9.00.
As to `COCCO[C@]1(c2nnc(N)o2)CC[C@@H](c2nc3c(-c4cnn(-c5ccccc5)c4)cnn3c(N)c2S(C)(=O)=O)CC1` [Compound 108, 5-((1R,4R)-4-(7-amino-6-(methylsulfonyl)-3-(1-phenyl-1H-pyrazol-4-yl)pyrazolo[1,5-a]pyrimidin-5-yl)-1-(2-methoxyethoxy)cyclohexyl)-1,3,4-oxadiazol-2-amine], the pIC50 in assay [1] is 7.00 to 9.00; in assay [2], 6.00 to 7.00; in assay [3], 7.00 to 9.00.
For `CO[C@]1(C(=O)O)CC[C@@H](c2nc3c(-c4cnn(-c5ccccc5)c4)cnn3c(N)c2C(C)=O)CC1` [Compound 36, (1R,4R)-4-(6-acetyl-7-amino-3-(1-phenyl-1H-pyrazol-4-yl)pyrazolo[1,5-a]pyrimidin-5-yl)-1-methoxycyclohexane-carboxylic acid], the figures for the pIC50 in assay [1], in assay [2] and in assay [3] were 7.00 to 9.00, 6.00 to 7.00 and 7.00 to 9.00, respectively.
`COCCO[C@]1(C#N)CC[C@@H](c2nc3c(-c4cnn(-c5ccccc5)c4)cnn3c(N)c2S(C)(=O)=O)CC1` [Compound 117, (1R,4R)-4-(7-amino-6-(methylsulfonyl)-3-(1-phenyl-1H-pyrazol-4-yl)pyrazolo[1,5-a]pyrimidin-5-yl)-1-(2-methoxyethoxy)cyclohexanecarbonitrile]: the values for the pIC50 in assay [1], in assay [2] and in assay [3] were 6.00 to 7.00, 5.70 to 6.00 and 7.00 to 9.00, respectively.
For `COCCO[C@]1(C(=O)NO)CC[C@H](c2nc3c(-c4ccc(-c5ncc[nH]5)nc4)cnn3c(N)c2C(C)=O)CC1` [Compound 114], the figures for the pIC50 in assay [1], in assay [2] and in assay [3] were 6.00 to 7.00, 6.00 to 7.00 and 7.00 to 9.00, respectively.
Turning to `CC(=O)c1c(N)n2ncc(-c3ccc(-c4ccccc4)nc3)c2nc1[C@H]1CC[C@@](O)(CS(C)(=O)=O)CC1` [Compound 161, 1-(7-amino-5-((1R,4R)-4-hydroxy-4-(methylsulfonylmethyl)cyclohexyl)-3-(6-phenylpyridin-3-yl)pyrazolo[1,5-a]pyrimidin-6-yl)ethanone], the pIC50 was 6.00 to 7.00 in assay [1], 6.00 to 7.00 in assay [2] and 7.00 to 9.00 in assay [3].
Turning to `COCCO[C@]1(C(N)=O)CC[C@H](c2nc3c(-c4ccc(-c5ncc[nH]5)nc4)cnn3c(N)c2C(C)=O)CC1` [Compound 113, (1S,4S)-4-(3-(6-(1H-imidazol-2-yl)pyridin-3-yl)-6-acetyl-7-aminopyrazolo[1,5-a]pyrimidin-5-yl)-1-(2-methoxyethoxy) cyclohexanecarboxamide], the pIC50 in assay [1] is 6.00 to 7.00; in assay [2], 6.00 to 7.00; in assay [3] it was 7.00 to 9.00.

Source of the values: patent US8883801B2, “Substituted pyrazolo[1,5-a]pyrimidines as mTOR inhibitors” (Merck Sharp & Dohme Corp., priority 2010, dated 2014).
